# Measurements published in article PMC6199744, “Development of Chemical Proteomics for the Folateome and Analysis of the Kinetoplastid Folateome” (ACS Infectious Diseases, 2018).
# Where two headings read alike, the source gives them in different places.
# What was measured:
# Type in all cases: binding
# [1] = biological target: T1, HeLa cell extract proteins (Homo sapiens, UniProt O75718)
# T1 construct: endogenous in cells; host or cells: HeLa cell extract
# T1 sequence (O75718 27-401): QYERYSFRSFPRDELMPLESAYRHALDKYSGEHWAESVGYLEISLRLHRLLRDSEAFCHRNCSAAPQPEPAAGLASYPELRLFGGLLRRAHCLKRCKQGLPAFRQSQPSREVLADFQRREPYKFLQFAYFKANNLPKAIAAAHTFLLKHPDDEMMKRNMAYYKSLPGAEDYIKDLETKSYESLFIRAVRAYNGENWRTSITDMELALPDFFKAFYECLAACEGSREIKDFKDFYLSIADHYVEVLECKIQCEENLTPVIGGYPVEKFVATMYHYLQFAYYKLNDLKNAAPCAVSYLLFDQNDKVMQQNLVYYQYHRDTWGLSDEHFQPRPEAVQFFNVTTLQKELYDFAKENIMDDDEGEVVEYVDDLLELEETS
# [2] = biological target: T2, HeLa cell extract proteins (Homo sapiens, UniProt P60891)
# T2 construct: endogenous in cells; host or cells: HeLa cell extract
# T2 sequence (P60891 1-318): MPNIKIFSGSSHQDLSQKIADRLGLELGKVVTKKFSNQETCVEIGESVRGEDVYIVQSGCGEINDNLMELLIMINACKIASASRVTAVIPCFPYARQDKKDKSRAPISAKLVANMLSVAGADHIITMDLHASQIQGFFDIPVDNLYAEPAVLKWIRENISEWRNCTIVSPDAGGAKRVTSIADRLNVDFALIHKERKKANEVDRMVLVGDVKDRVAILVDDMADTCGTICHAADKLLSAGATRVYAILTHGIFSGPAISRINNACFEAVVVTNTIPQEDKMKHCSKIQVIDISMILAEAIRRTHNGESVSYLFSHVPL
# [3] = biological target: T3, HeLa cell extract proteins (Homo sapiens, UniProt Q9UBQ5)
# T3 construct: endogenous in cells; host or cells: HeLa cell extract
# [4] = biological target: T4, HeLa cell extract proteins (Homo sapiens, UniProt P45954)
# T4 construct: endogenous in cells; host or cells: HeLa cell extract
# [5] = biological target: T5, HeLa cell extract proteins (Homo sapiens, UniProt Q9BVA1); details: HeLa; protein TUBB2B
# T5 construct: endogenous in cells; host or cells: HeLa cell extract
# [6] = biological target: T6, HeLa cell extract proteins (Homo sapiens, UniProt Q969Y2); details: captured protein GTPBP3; HeLa
# T6 construct: endogenous in cells; host or cells: HeLa cell extract
# T6 sequence (Q969Y2 21-492): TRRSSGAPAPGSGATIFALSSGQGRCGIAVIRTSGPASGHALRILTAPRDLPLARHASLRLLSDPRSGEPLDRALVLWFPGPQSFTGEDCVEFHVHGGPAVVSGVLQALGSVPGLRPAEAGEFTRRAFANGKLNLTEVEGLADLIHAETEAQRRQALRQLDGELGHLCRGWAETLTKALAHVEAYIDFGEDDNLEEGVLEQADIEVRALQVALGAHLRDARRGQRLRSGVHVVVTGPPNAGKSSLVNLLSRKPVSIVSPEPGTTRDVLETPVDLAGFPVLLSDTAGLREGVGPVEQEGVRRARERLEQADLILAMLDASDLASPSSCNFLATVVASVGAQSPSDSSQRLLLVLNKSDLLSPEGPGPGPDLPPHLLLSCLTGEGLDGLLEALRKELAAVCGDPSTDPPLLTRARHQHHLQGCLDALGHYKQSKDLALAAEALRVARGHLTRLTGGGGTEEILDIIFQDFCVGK
# [7] = biological target: T7, HeLa cell extract proteins (Homo sapiens, UniProt P48556); details: captured protein PSMD8; HeLa
# T7 construct: endogenous in cells; host or cells: HeLa cell extract
# T7 sequence (P48556 1-350): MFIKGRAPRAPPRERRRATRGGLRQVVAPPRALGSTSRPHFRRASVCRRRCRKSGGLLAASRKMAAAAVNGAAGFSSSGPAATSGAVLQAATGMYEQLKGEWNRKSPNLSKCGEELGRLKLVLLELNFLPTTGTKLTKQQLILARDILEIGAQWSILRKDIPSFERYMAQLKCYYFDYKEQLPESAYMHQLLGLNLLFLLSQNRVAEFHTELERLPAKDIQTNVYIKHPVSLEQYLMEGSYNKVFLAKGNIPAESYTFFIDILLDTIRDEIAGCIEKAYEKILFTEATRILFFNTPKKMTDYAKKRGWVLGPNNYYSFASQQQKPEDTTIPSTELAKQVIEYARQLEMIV
# [8] = biological target: T8, HeLa cell extract proteins (Homo sapiens, UniProt P22061); details: protein PCMT1; HeLa
# T8 construct: endogenous in cells; host or cells: HeLa cell extract
# T8 sequence (P22061 whole entry): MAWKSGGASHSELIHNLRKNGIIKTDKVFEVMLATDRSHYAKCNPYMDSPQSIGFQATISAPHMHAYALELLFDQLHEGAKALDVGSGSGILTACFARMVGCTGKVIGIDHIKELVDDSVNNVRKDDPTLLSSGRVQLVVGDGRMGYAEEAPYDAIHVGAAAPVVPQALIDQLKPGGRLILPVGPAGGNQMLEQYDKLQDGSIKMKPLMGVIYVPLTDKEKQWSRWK
# T5 sequence (Q9BVA1 whole entry): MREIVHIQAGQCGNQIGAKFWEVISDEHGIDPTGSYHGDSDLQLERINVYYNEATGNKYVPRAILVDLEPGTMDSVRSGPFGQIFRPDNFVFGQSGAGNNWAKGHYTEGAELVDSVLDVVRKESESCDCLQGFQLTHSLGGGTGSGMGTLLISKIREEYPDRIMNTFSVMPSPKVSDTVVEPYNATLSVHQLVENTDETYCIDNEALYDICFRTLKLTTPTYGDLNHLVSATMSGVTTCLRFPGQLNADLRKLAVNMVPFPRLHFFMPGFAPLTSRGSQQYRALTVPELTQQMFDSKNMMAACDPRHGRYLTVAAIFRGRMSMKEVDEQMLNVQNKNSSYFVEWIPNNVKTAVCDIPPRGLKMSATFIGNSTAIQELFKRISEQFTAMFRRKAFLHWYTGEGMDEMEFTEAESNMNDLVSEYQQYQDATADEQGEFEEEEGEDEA
# T3 sequence (Q9UBQ5 whole entry): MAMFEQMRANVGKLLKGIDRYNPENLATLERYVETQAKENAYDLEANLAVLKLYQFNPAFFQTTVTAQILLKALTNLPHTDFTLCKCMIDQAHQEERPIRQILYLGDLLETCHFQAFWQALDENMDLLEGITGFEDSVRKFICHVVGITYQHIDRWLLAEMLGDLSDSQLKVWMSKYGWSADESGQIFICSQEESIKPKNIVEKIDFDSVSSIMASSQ
Structure (SMILES),"fold changes relative to vehicle control ([1]; protein CRTAP, HeLa)","fold changes relative to vehicle control ([2]; HeLa, protein PRPS1)","fold changes relative to vehicle control ([3]; protein EIF3K, HeLa)","fold changes relative to vehicle control ([4]; HeLa, protein ACADSB)",fold changes relative to vehicle control [5],fold changes relative to vehicle control [6],fold changes relative to vehicle control [7],fold changes relative to vehicle control [8],other results
"Nc1nc2c(c(=O)[nH]1)N(C=O)C(CNc1ccc(C(=O)N[C@@H](CCC(=O)O)C(=O)O)cc1)CN2 (stereo partly shown) [LEU, leucovorin]",0.85,1.12,0.94,0.9,–,–,–,–,–
"Nc1nc2[nH]cc(CCc3ccc(C(=O)N[C@@H](CCC(=O)O)C(=O)O)cc3)c2c(=O)[nH]1 [PTX, pemetrexed]",–,–,–,–,–,–,–,–,fold changes relative to vehicle control [1]: 0.82; fold changes relative to vehicle control [2]: 1.07; fold changes relative to vehicle control [3]: 0.97; fold changes relative to vehicle control [4]: 0.93
CCCCCCOc1ccc(Cc2cnc(N)nc2N)cc1 [compound 1],–,–,–,–,1.07,0.4,0.89,0.92,–
CCCCCCOc1cccc(Cc2cnc(N)nc2N)c1 [compound 2],–,–,–,–,1.03,1.05,1.08,1.28,–
Nc1nc2cccc(-c3ccccc3)c2n1Cc1ccc(Cl)c(Cl)c1 [compound 3],–,–,–,–,1.11,0.95,0.78,0.88,–
NCCOCCOCC(=O)Nc1nc2ncc(CNc3ccc(C(=O)NC(CCC(=O)O)C(=O)O)cc3)nc2c(=O)[nH]1 (stereo not shown) [compound 6],0.86,1.08,1.06,0.96,–,–,–,–,–
NCCCNc1ccc(C(=O)NC(CCC(=O)O)C(=O)O)cc1 (stereo not shown) [compound 7],0.91,0.9,1.1,1.02,–,–,–,–,–
